Results as given in the NIST ThermoML archive (doi:10.1016/j.jct.2017.02.023).
Numbers after ± are expanded uncertainties.

Key:
[1] = 81.5 kPa, Liquid, Vibrating tube method
[2] = refractive index (Na D-line) (dimensionless); settings: 81.5 kPa, Liquid, Standard Abbe refractometry
[3] = xn = mol fraction of the nth substance listed; settings: 81.5 kPa, Liquid, Vibrating tube method, x1 = 1
[4] = refractive index (Na D-line) (dimensionless); xn = mol fraction of the nth substance listed; settings: 81.5 kPa, Liquid, Standard Abbe refractometry, x1 = 1

Row | Structure (SMILES) | mass density ([1]; 298.15 K) [kg/m3] | mass density ([1]; 308.15 K) [kg/m3] | mass density ([1]; 318.15 K) [kg/m3] | mass density ([1]; 328.15 K) [kg/m3] | refractive index ([2]; 298.15 K) | refractive index ([2]; 308.15 K) | refractive index ([2]; 318.15 K) | refractive index ([2]; 328.15 K) | mass density ([3]; 298.15 K) [kg/m3] | mass density ([3]; 308.15 K) [kg/m3] | mass density ([3]; 318.15 K) [kg/m3] | mass density ([3]; 328.15 K) [kg/m3] | refractive index ([4]; 298.15 K) | refractive index ([4]; 308.15 K) | refractive index ([4]; 318.15 K) | refractive index ([4]; 328.15 K)
1 | CNC1CCCCC1 [N-methylcyclohexylamine] | 865.2 ± 1.6 | 856.57 ± 1.6 | 847.67 ± 1.6 | 838.68 ± 1.6 | 1.45306 ± 0.0016 | 1.44812 ± 0.0016 | 1.4431 ± 0.0016 | 1.43809 ± 0.0016 | – | – | – | – | – | – | – | –
2 | CCCC(C)O (centres undefined) [pentan-2-ol] + CNC1CCCCC1 | – | – | – | – | – | – | – | – | 805.37 ± 1.6 | 796.95 ± 1.6 | 788.38 ± 1.6 | 779.17 ± 1.6 | 1.4045 ± 0.0016 | 1.40029 ± 0.0016 | 1.39586 ± 0.0016 | 1.39126 ± 0.0016
3 | CCCCCC(C)O (centres undefined) [2-heptanol] | 813.36 ± 1.6 | 805.72 ± 1.6 | 797.65 ± 1.6 | 789.38 ± 1.6 | 1.41924 ± 0.0016 | 1.41505 ± 0.0016 | 1.41076 ± 0.0016 | 1.40647 ± 0.0016 | – | – | – | – | – | – | – | –
4 | CCCCC(C)O (centres undefined) [2-hexanol] | 810.17 ± 1.6 | 801.94 ± 1.6 | 793.57 ± 1.6 | 784.6 ± 1.6 | 1.41296 ± 0.0016 | 1.40853 ± 0.0016 | 1.40413 ± 0.0016 | 1.3996 ± 0.0016 | – | – | – | – | – | – | – | –
5 | CCCCCCC(C)O (centres undefined) [2-octanol] | 817.05 ± 1.6 | 809.43 ± 1.6 | 801.32 ± 1.6 | 793.06 ± 1.6 | 1.42483 ± 0.0016 | 1.42073 ± 0.0016 | 1.41648 ± 0.0016 | 1.41224 ± 0.0016 | – | – | – | – | – | – | – | –
6 | CCCCCC(C)O (centres undefined) [2-heptanol] + CNC1CCCCC1 | – | – | – | – | – | – | – | – | 813.36 ± 1.6 | 805.72 ± 1.6 | 797.65 ± 1.6 | 789.38 ± 1.6 | 1.41924 ± 0.0016 | 1.41505 ± 0.0016 | 1.41076 ± 0.0016 | 1.40647 ± 0.0016
7 | CCC(C)O (centres undefined) [butan-2-ol] + CNC1CCCCC1 | – | – | – | – | – | – | – | – | 802.71 ± 1.6 | 794.2 ± 1.6 | 785.32 ± 1.6 | 775.52 ± 1.6 | 1.39544 ± 0.0016 | 1.39105 ± 0.0016 | 1.38646 ± 0.0016 | 1.38175 ± 0.0016
8 | CCCCCCC(C)O (centres undefined) [2-octanol] + CNC1CCCCC1 | – | – | – | – | – | – | – | – | 817.05 ± 1.6 | 809.43 ± 1.6 | 801.32 ± 1.6 | 793.06 ± 1.6 | 1.42483 ± 0.0016 | 1.42073 ± 0.0016 | 1.41648 ± 0.0016 | 1.41224 ± 0.0016
9 | CC(C)O [propan-2-ol] | 781.05 ± 1.6 | 772.41 ± 1.6 | 763.41 ± 1.6 | 753.12 ± 1.6 | 1.37511 ± 0.0016 | 1.37097 ± 0.0016 | 1.36665 ± 0.0016 | 1.36181 ± 0.0016 | – | – | – | – | – | – | – | –
10 | CCCCC(C)O (centres undefined) [2-hexanol] + CNC1CCCCC1 | – | – | – | – | – | – | – | – | 810.17 ± 1.6 | 801.94 ± 1.6 | 793.57 ± 1.6 | 784.6 ± 1.6 | 1.41296 ± 0.0016 | 1.40853 ± 0.0016 | 1.40413 ± 0.0016 | 1.3996 ± 0.0016
11 | CC(C)O [propan-2-ol] + CNC1CCCCC1 | – | – | – | – | – | – | – | – | 781.05 ± 1.6 | 772.41 ± 1.6 | 763.41 ± 1.6 | 753.12 ± 1.6 | 1.37511 ± 0.0016 | 1.37097 ± 0.0016 | 1.36665 ± 0.0016 | 1.36181 ± 0.0016
12 | CCCC(C)O (centres undefined) [pentan-2-ol] | 805.37 ± 1.6 | 796.95 ± 1.6 | 788.38 ± 1.6 | 779.17 ± 1.6 | 1.4045 ± 0.0016 | 1.40029 ± 0.0016 | 1.39586 ± 0.0016 | 1.39126 ± 0.0016 | – | – | – | – | – | – | – | –
13 | CCC(C)O (centres undefined) [butan-2-ol] | 802.71 ± 1.6 | 794.2 ± 1.6 | 785.32 ± 1.6 | 775.52 ± 1.6 | 1.39544 ± 0.0016 | 1.39105 ± 0.0016 | 1.38646 ± 0.0016 | 1.38175 ± 0.0016 | – | – | – | – | – | – | – | –
